Columns and labels:
[1] = system: Cell Line 1 (CHO) expressing Antibody 1; assay: Acidic species variants (WCX-10) of Antibody 1, Cell Line 1 shake flask fed-batch culture; assay type: cell-based, Chinese Hamster; settings: shaker; for reduction of total acidic species content, absolute value: vs unsupplemented control
Description: (§1) A recombinant Chinese Hamster Ovary (CHO) cell line (Cell Line 1) expressing a humanized monoclonal antibody (Antibody 1) was evaluated in 2 different cultures vessels (shaker flasks and 3 L laboratory-scale bioreactors). The cell line was of CHO DUX-B11 origin based on a DHFR (dihydrofolate reductase) expression system and cultured in a chemically defined basal media, and fed periodically with a chemically-defined feed media (CDFM). The media utilized throughout all of the experiments were chemically-defined, and both animal-component free, and protein-free. Each of the respective media were supplemented as needed with selected bioflavonoids to evaluate for their potential impact on the resulting acidic species profile. In preparation of the cultures, the cell lines were serially expanded through separate seed train inoculums to generate enough cells for inoculation. Process conditions utilized during the cultures were slightly different depending on the culture scale, but similar within each scale to the respective non-bioflavonoid supplemented control conditions. All bioflavonoids utilized were purchased from Sigma-Aldrich (St. Louis, Mo.).
(§2) Samples were analyzed using an HPLC system equipped with a ProPac WCX-10 analytical column (Thermo Scientific, Sunnyvale, Calif.). Approximately 100 μg of sample was loaded in 6% Buffer B (10 mM sodium phosphate, 500 mM NaCl, pH 5.5) and 94% Buffer A (10 mM sodium phosphate, pH 7.5). The column was run at a flow rate of 1.0 mL/min. The protein was eluted from the column by increasing the buffer B composition from 6% to 16% over 20 minutes. The protein peaks were measured using UV absorbance at 280 nm as the peaks eluted from the column. The column was regenerated using 100% buffer B followed be a re-equilibration period using initial condition before the injection of the next sample. Peaks eluting before the main peak were termed “acidic peaks” and peaks eluting after the main peak were called “basic peaks” (FIG. 2).
In this Example, EGCG was added into the feed (cell culture medium) at the concentration range of 5 mg/L (low), 20 mg/L (mid) and 50 mg/L (high) in a shaker experiment to determine the impact of EGCG on product quality of a humanized monoclonal antibody (Antibody 1). Detailed cell culture conditions are as described in Table 1.
However, it was not clear whether or not additional bioflavonoids would also have the same effects. To evaluate the impact of alternative bioflavonoids, fed-batch shake flask cultures were initiated with CDFM supplemented with 3 different concentrations of genistein, rutin, and naringin, in addition to EGCG. Cell growth, viability, as well as titers and acidic species variants were measured.
Charge Heterogeneity via Weak Cation Exchange Chromatography-Samples were analyzed using an HPLC system equipped with a ProPac WCX-10 analytical column (Thermo Scientific, Sunnyvale, Calif.). Approximately 100 μg of sample was loaded in 6% Buffer B (10 mM sodium phosphate, 500 mM NaCl, pH 5.5) and 94% Buffer A (10 mM sodium phosphate, pH 7.5). The column was run at a flow rate of 1.0 mL/min. The protein was eluted from the column by increasing the buffer B composition from 6% to 16% over 20 minutes. The protein peaks were measured using UV absorbance at 280 nm as the peaks eluted from the column. The column was regenerated using 100% buffer B followed be a re-equilibration period using initial condition before the injection of the next sample. Peaks eluting before the main peak were termed ‘acidic peaks’ and peaks eluting after the main peak were called ‘basic peaks’ (FIG. 2).
To evaluate the impact of other bioflavonoids, fed-batch shake flask cultures were initiated with CDFM supplemented with multiple concentrations of rutin. Cell growth, viability, as well as titers and acidic species variants were measured and shown in FIGS. 14 and 15, respectively.

[2] = system: Cell Line 1 (CHO) expressing Antibody 1; assay: Acidic species variants (WCX-10) of Antibody 1, Cell Line 1 3 L bioreactor fed-batch culture; assay type: cell-based, Chinese Hamster; settings: for drop in absolute acidic species percentage points: 3 L bioreactor; for drop in absolute acidic species percentage points / relative total AR (ratio to Day 8 value of unsupplemented control): Day 15 harvest
Description: as §1, §2
In the next experiment, lab-scale bioreactors were used to (1) confirm the shaker experiment results and (2) to determine whether higher concentration range of EGCG is suitable for supplementing into cell culture. EGCG was added to the feed of the batch culture at the concentrations of 20 mg/L (mid), 50 mg/L (high) and 125 mg/L (high+) and 250 mg/L (high++) in this reactor experiment.
Cell Line 1 was evaluated in larger-scale feed batch cultures with the feed media supplemented with various bioflavonoids. […] By contrast, cell growth performance was slightly different for the 0.1 g/L EGCG supplemented condition. […] However, the cell viability remained high at 0.1 g/L EGCG. All cultures were successfully harvested on Day 15 post-inoculation. The harvest titers measured from the evaluated cultures were similar.
Cell Line 1 was also evaluated in laboratory-scale fedbatch cultures with the feed media supplemented with various bioflavonoids. […] Cell growth performance was slightly different however with the 0.1 g/L EGCG supplemented condition. […] All cultures were able to be successfully harvested on Day 15 post-inoculation.

[3] = system: recombinant CHO cell lines; assay: Harvest titer / productivity summary across bioflavonoid supplemented cultures; assay type: cell-based, Chinese Hamster
Description: Four different recombinant Chinese Hamster Ovary (CHO) cell lines expressing four different recombinant glycoproteins were evaluated in either shaker flask culture, or 3 L laboratory scale bioreactors. Cell Line 1 was genetically engineered to express Antibody 1, Cell Line 2 was genetically engineered to express Antibody 2, Cell Line 3 was genetically engineered to express dual variable domain immunoglobulin 1 (DVD1) and Cell Line 4 was genetically engineered to express dual variable domain immunoglobulin 2 (DVD2).
Protein A Affinity Chromatography-Antibody titers were measured from crude cell culture harvests on a Poros ATM (Life Technologies, Carlsbad, Calif.) affinity column using an HPLC system operating with a low pH, step elution gradient with detection at 280 nm. Absolute concentrations were assigned with respect to reference standard calibration curves.

[4] = system: Cell Line 3 (CHO) expressing DVD1; assay: Cell culture performance, Cell Line 3 shake flask culture; settings: shaker
[5] = 50, 125 and 250 mg/L in feed, bioreactor

O=C(O[C@@H]1Cc2c(O)cc(O)cc2O[C@@H]1c1cc(O)c(O)c(O)c1)c1cc(O)c(O)c(O)c1 [EGCG, epigallocatechin gallate]
reduction of total acidic species content, relative value ([1]; 5 mg/L in feed): 5%
reduction of total acidic species content, absolute value ([1]; 5 mg/L in feed): 1%
reduction of total acidic species content, relative value ([1]; 20 mg/L in feed): 10%
reduction of total acidic species content, absolute value ([1]; 20 mg/L in feed): 2%
reduction of total acidic species content, relative value ([1]; 50 mg/L in feed): 35%
reduction of total acidic species content, absolute value ([1]; 50 mg/L in feed): 7%
drop in absolute acidic species percentage points ([2]; 0.05 g/L in CDFM): 4%
relative total AR (ratio to Day 8 value of unsupplemented control) ([2]; 0.05 g/L in CDFM, bioreactor): 1.10
drop in absolute acidic species percentage points ([2]; 0.1 g/L in CDFM): 10%
relative total AR (ratio to Day 8 value of unsupplemented control) ([2]; 0.1 g/L in CDFM, bioreactor): 0.69
reduction of total acidic species content, absolute value [2, 5]: at least 2%
reduction of total acidic species content, relative value [2, 5]: ≥ 16%
drop in harvest titer ([3]; concentrations up to 0.1 g/L, supplemented cultures overall): at most 8%
recombinant protein productivity ([3]; supplementation up to 0.2 g/L): only nominally impacted
growth profile, viability and productivity vs control ([4]; 0.02, 0.05 and 0.1 g/L in feed): performed very similarly to control cultures
viability decrease compared to control ([4]; 0.2 g/L in feed): 15%
